Entries after “also recorded” stand apart in the source; their conditions may differ. Where a name gives a salt, the structure may show the parent alone. Read-outs that look alike come from different tables or passages of the source.
Legend:
[1] = residual nitrosamine content measured by gas chromatography - thermal energy analyzer; details: for Residual Nitrosamines: Table 2, sum of dimethylnitrosamine and dodecylmethylnitrosamine, mole ratio about 4.3:1; for Residual Nitrosamine: Table 3
Excerpt: In addition to determining the effect of the phosphonates upon the extent of the reaction, the residual content of nitrosamines was independently measured by gas chromatography - thermal energy analyzer, and Table 2 below gives the sum of the two principal nitrosamines, namely dimethylnitrosamine and dodecylmethylnitrosamine.

[2] = oxidation of dodecyldimethylamine with hydrogen peroxide under transition metal stress conditions in presence of phosphonate or other chelating agent (residual peroxide/amine, amine oxide yield, amine conversion)
Excerpt: The residual amounts of peroxide and amine are the measured amounts in the mixture, the A O yield indicated is the weight percentage of measured amine oxide based on the amount of amine employed, assuming a purity of 97.5% and the amine conversion is based on the weight of the amine material (as 100%) that has been consumed.

[3] = Table 1, amine oxide, based on amine employed, assuming purity of 97.5%, stress conditions, mole ratio about 4.3:1
[4] = Table 1, mole ratio ATMP:metals 7.3:1 (C 5)
[5] = Table 1, stress conditions, 2.5 ppm metals, […]
[6] = Table 1, weight of amine consumed, stress conditions, mole ratio about 4.3:1
[7] = chelating agent:metals mole ratio 4.3:1
[8] = Table 3, chelating agent:metals mole ratio 4.3:1
[9] = Table 1, stress conditions, 2.5 ppm metals, phosphonate:metal mole ratio about 4.3:1
[10] = Table 1, phosphonate pre-mixed with the hydrogen peroxide solution (Ex 3)
[11] = Table 3, lower mole ratio 2.15:1 (Ex 10)

Structure (SMILES) | Residual Nitrosamines [1] [ppb] | A O yield [2, 3] [wt %] | Amine Conversion [2, 6] [wt %] | Residual Nitrosamine [1, 7] [ppb] | A O yield [2, 8] [wt %] | Amine Conversion [2, 8] [wt %] | Peroxide Consumed [2, 8] [wt %] | Residual Amine [2, 9] [wt %] | Residual Peroxide [2, 9] [wt %] | further results
O=P(O)(O)CN(CP(=O)(O)O)CP(=O)(O)O [ATMP, aminotris(methylenephosphonic acid) sodium salt] | 11036 | 38.3 | 40.5 | – | – | – | – | – | – | effect on residual nitrosamine content (in words) ([1]; text conclusion from Table 2): significantly worse; A O yield [2, 4]: 63.1 wt %; Amine Conversion [2, 4]: 65.7 wt %; Residual Amine [2, 4]: 9.9 wt %; Residual Peroxide [2, 4]: 0.02 wt %; Residual Amine [2, 5]: 17.3 wt %; Residual Peroxide [2, 5]: 0.02 wt %; effectiveness in the amine oxidation process (in words) ([2]; stress conditions, listed as C4, sodium salt): less amine conversion and a lower yield of amine oxide than the corresponding reaction to which no phosphonates had been introduced; effectiveness in the amine oxidation process (in words) ([2]; stress conditions, listed as C5, sodium salt): rather better than C4, but still very markedly worse than the results for Ex2/3, Ex6 or Ex7; effectiveness in the amine oxidation process (in words) ([2]; stress conditions, sodium salt): did not perform with similar effectiveness
O=C(O)CN(CC(=O)O)C1CCCCC1N(CC(=O)O)CC(=O)O (stereo not shown) [CDTA, cyclohexane-1,2-diaminotetra(acetic acid), sodium salt] | – | – | – | 3279 | 34.4 | 68.1 | 99.9 | – | – | –
O=P(O)(O)CN(CP(=O)(O)O)C1CCCCC1N(CP(=O)(O)O)CP(=O)(O)O (stereo not shown) [CDTMP, cyclohexanediaminotetra(methylenephosphonic acid), sodium salt] | 1950 | 97.7 | 97.3 | – | – | – | – | 0.8 | 0.67 | effectiveness in the amine oxidation process (in words) ([2]; stress conditions): very great amelioration of the problem
O=C(O)CN(CCN(CC(=O)O)CC(=O)O)CCN(CC(=O)O)CC(=O)O [DTPA, diethylenetriaminepenta(acetic acid), sodium salt] | – | – | – | 7017 | 83.9 | 83.2 | 99.6 | – | – | –
O=P(O)(O)CN(CCN(CP(=O)(O)O)CP(=O)(O)O)CCN(CP(=O)(O)O)CP(=O)(O)O [DTPMP, diethylenetriaminepenta(methylenephosphonic acid), sodium salt] | 251 | 96.2 | 94.4 | – | – | – | – | 1.6 | 0.72 | Residual Nitrosamine ([1]; lower mole ratio 2.15:1 (Ex 10)): 1031 ppb; A O yield [2, 10]: 97.2 wt %; Amine Conversion [2, 10]: 96.7 wt %; Residual Amine [2, 10]: 0.9 wt %; Residual Peroxide [2, 10]: 0.66 wt %; A O yield [2, 11]: 98.8 wt %; Amine Conversion [2, 11]: 98.3 wt %; Peroxide Consumed [2, 11]: 83.1 wt %; effectiveness in the amine oxidation process (in words) ([2]; stress conditions, sodium salt): very great amelioration of the problem; also recorded: equally as good, or possibly even slightly better when introduced via the hydrogen peroxide solution
O=P(O)(O)CN(CCN(CP(=O)(O)O)CP(=O)(O)O)CCN(CP(=O)(O)O)CP(=O)(O)O [DTPMPA] | – | – | – | 1591 | 96.5 | 96.1 | 86.4 | – | – | –
O=C([O-])CN(CCN(CC(=O)[O-])CC(=O)[O-])CC(=O)[O-].[Na+].[Na+].[Na+].[Na+] [EDTA, ethylenediaminetetra(acetic acid), sodium salt] | – | – | – | 3421 | – | – | – | – | – | A O yield [2]: 35.3 wt %; Amine Conversion [2]: 54.8 wt %; Peroxide Consumed [2]: 99.9 wt %
O=P(O)(O)CN1CCN(CP(=O)(O)O)CCN(CP(=O)(O)O)CCN(CP(=O)(O)O)CCN(CP(=O)(O)O)CCN(CP(=O)(O)O)CC1 [HCMP, hexacyclenehexa(methylenephosphonic acid)] | 1056 | 97.1 | 96.8 | – | – | – | – | 0.9 | 0.76 | effectiveness in the amine oxidation process (in words) ([2]; stress conditions): very great amelioration of the problem
O=P(O)(O)CN(CCCCCCN(CP(=O)(O)O)CP(=O)(O)O)CP(=O)(O)O [HDTMP, hexamethylenediaminetetra(methylene phosphonic acid)] | – | – | – | 3834 | 37.0 | 58.7 | 99.6 | – | – | effectiveness in the amine oxidation process (in words) ([2]; stress conditions, listed as C11): singularly ineffective; effectiveness in the amine oxidation process (in words) ([2]; stress conditions, listed as hexamethylenediaminotetra(methylenephosphonic acid)): significantly inferior
CC(O)(P(=O)(O)O)P(=O)(O)O [HEDP, hydroxyethylidene-1,1-diphosphonic acid] | – | – | – | 10024 | 32.1 | 48.2 | 99.6 | – | – | effectiveness in the amine oxidation process (in words) ([2]; stress conditions, listed as (hydroxyethylidene)diphosphonic acid): significantly inferior; effectiveness in the amine oxidation process (in words) ([2]; stress conditions, listed as C12): ineffective
